Source: US8969413B2

Experiments:
[1] = target: T1, hGAT-3 (Homo sapiens, UniProt P48066); details: data from Kvist et al. 2009; read-out: hGAT-3 uptake IC50; cited from earlier work
T1 construct: expressed in transfected cells; host or cells: tsA201 cells, transient (PolyFect)

[2] = target: T2, mGAT2 (Mus musculus, UniProt P31651); details: data from Bolvig et al. 1999; read-out: mGAT2 uptake IC50; cited from earlier work
T2 construct: expressed in transfected cells

[3] = target: T3, hGAT-2 (Homo sapiens, UniProt Q9NSD5); details: data from Kvist et al. 2009; read-out: hGAT-2 uptake IC50; cited from earlier work
T3 construct: expressed in transfected cells; host or cells: tsA201 cells, transient (PolyFect)

[4] = target: T4, human ρ1 GABAC receptors (Homo sapiens, UniProt P24046); assay: GABAC receptor two-electrode voltage clamp in Xenopus laevis oocytes; format: cell-based; details: GABA 1 μM (EC80), clamped at −60 mV
T4 construct: expressed in transfected cells; host or cells: Xenopus laevis oocytes injected with ρ1 mRNA
Procedure: Human ρ1 cDNA encapsulated in pcDNA1.1 was linearized with Not1. Linearized cDNA was transcribed to mRNA using the T7 “mMESSAGE mMACHINE” kit (Ambion Inc. Austin, Tex., USA) as previously described. […] Eur. J. Pharmacol. 2001, 430, 185-192. GABAC receptor activity assays were performed in oocytes harvested from Xenopus laevis (housed in the Department of Veterinary Science at the University of Sydney) and defolliculated. The oocytes were stored in ND96 solution (in mM) NaCl (96), KCl (2), MgCl2 (1), CaCl2 (1.8), HEPES (hemi-Na salt; 5) supplemented with sodium pyruvate (2.5), theophylline (0.5), and 50 μg/ml^−1 gentamycin for 2-5 days post-injection.
Electrophysiological methods were performed as previously described. Hertz L, Juurlink B H J, Hertz E, Fosmark H and Schousboe A. Preparation of Primary Cultures of Mouse (Rat) Astrocytes, in A Dissection and Tissue Culture Mnual of the Nervous System (Shahar A, de Vellis J, Vernadakis A and Haber B eds) pp 105-108, Alan R. Liss, Inc., New York, 1989 Stage V-VI oocytes were injected with 10 ng 50 nl^−1 of ρ1 mRNA and then stored at 16° C. Recordings of receptor activity were obtained for 2-5 days by a two-electrode voltage clamp by means of a Geneclamp 500 amplifier (Axon Instruments Inc., Foster City, Calif.), a MacLab 2e recorder (AD Instruments, Sydney, NSW), and Chart version 3.6.3 program. Oocytes were voltage clamped at −60 mV, and the preparation was continually perfused with ND96 solution at room temperature. […] Compound 2 (CPP-115) was tested on three oocytes from at least two harvests.

[5] = test system: humans; details: trial of 103 subjects, cocaine dependence; cited from earlier work
[6] = test system: human brain GABA; details: after a single dose; cited from earlier work
[7] = test system: Sprague-Dawley rats; details: vigabatrin, Ashby et al. 1999; cited from earlier work
[8] = test system: Sprague-Dawley rats; details: vigabatrin, earlier work; cited from earlier work
[9] = test system: Mice; assay: corneal kindling; format: in vivo; details: Single IP drug dose, 3 secs; for ED50: read-out: Corn. Kind. ED50
Source text: Mice are kindled electrically with 3 sec stimulation, 8 mA, 60 Hz, and corneal electrodes to a criterion of 10 consecutive Stage 5 seizures (facial clonus and head nodding progressing to forelimb clonus, and finally rearing and falling accompanied by a generalized clonic seizure as described by Racine). Stage 5 is generally reached after twice daily stimulation for 8 days. With continued stimulation once a day, animals usually progress to a reproducible Stage 5 after 10-14 additional days. At least 72 hours after the mice have been kindled, the test substance is administered either i.p. or p.o. and, at the previously determined TPE, each animal is given the electrical stimulus indicated above. Following stimulation, the animals are observed for the presence or absence of the rearing and falling criteria of a Stage 5 seizure. Treated animals not displaying a Stage 3, 4, or 5 seizure are considered protected. The dose of the test substance is varied between the limits of 0 and 100% efficacy, and the ED50 (mean effective dose) and 95% confidence intervals calculated by probit analysis. Mean values and the S.E.M. are calculated for the length of clonus and seizure duration and p values are determined by the Student's t-test

[10] = test system: Mice; assay: minimal clonic seizure (6 Hz) test; format: in vivo; details: Single IP drug dose, 3 seconds; for ED50: Mus musculus, ip; for ED50 / 6 Hz TPE: corneal electrode
Source text: Some clinically useful AEDs are ineffective in the standard MES and scMET tests but still have anticonvulsant activities in vivo. In order to identify potential AEDs with this profile, compounds may be tested in the minimal clonic seizure (6 Hz or ‘psychomotor’) test (Barton et al., 2001). […] Test compounds are pre-administered to mice via i.p. injection. At varying times, individual mice (four per time point) are challenged with sufficient current delivered through corneal electrodes to elicit a psychomotor seizure in 97% of animals (32 mA for 3 s) (Toman et al., 1952). Untreated mice will display seizures characterized by a minimal clonic phase followed by stereotyped, automatistic behaviors described originally as being similar to the aura of human patients with partial seizures. Animals not displaying this behavior are considered protected. The test may be evaluated quantitatively by measuring the responses at varying doses at a determined time of peak effect (TPE). This test may also be conducted at 22 and 44 mA if requested by ASP staff.

[11] = test system: Sprague Dawley rats; assay: cocaine induced dopamine surge in nucleus accumbens (FIG. 3); details: vigabatrin 300 mg/kg single dose
[12] = test system: patients; details: cited from earlier work
[13] = test system: Rat; assay: subcutaneous Metrazol seizure threshold test (scMET); format: in vivo; details: 7 days IP, at 600 mg/kg, Metrazol 70 mg/kg
Procedure: (§1) Subcutaneous injection of the convulsant Metrazol produces clonic seizures in laboratory animals. […] Animals are pretreated with various doses of the test compound given by i.p. injection. At the previously determined TPE of the test compound, the dose of Metrazol which will induce convulsions in 97% of animals (CD97; 85 mg/kg mice) is injected into a loose fold of skin in the midline of the neck. The animals are placed in isolation cages to minimize stress (Swinyard et al, 1961) and observed for the next 30 minutes for the presence or absence of a seizure. An episode of clonic spasms, approximately 3-5 seconds, of the fore and/or hindlimbs, jaws, or vibrissae is taken as the endpoint.

[14] = test system: Mice; assay: as above; format: in vivo; details: Single IP drug dose, Metrazol 85 mg/kg; up to 1500 mg/kg
Procedure: as §1

[15] = test system: Mice; assay: subcutaneous picrotoxin (scPIC); format: in vivo; details: Single IP drug dose, 2.5 mg/kg PIC; up to 100 mg/kg
Procedure: Bicuculline (Bic) and Picrotoxin (Pic) are chemoconvulsants that cause clonic seizures in a manner similar to Metrazol (see scMET test). […] Therefore, as much as possible it is useful to differentiate novel AEDs pharmacologically. […]. At a previously determined time of peak effect (TPE), the animals are given a subcutaneous injection of either of the noted chemo-convulsants using the convulsive dose (CD97—a dose of 2.7 or 2.5 mg/kg, for Bic and Pic, respectively). The experimental animals are placed in isolation cages to minimize possible crowding stresses (Swinyard et al., 1961) and observed for the next 30 minutes (for Bic) or 45 minutes (for Pic) for the presence or absence of a seizure. An episode of clonic spasms, approximately 3-5 seconds, of the fore and/or hindlimbs, jaws, or vibrissae is used as the experimental endpoint.

[16] = test system: Sprague-Dawley rats; assay: μPET imaging of 11C-raclopride binding after cocaine; details: cocaine 5 mg/kg intravenous, average, preliminary
[17] = test system: Sprague-Dawley rats; details: saline/cocaine pairings, cocaine 20 mg/kg i.p.
[18] = target: γ-aminobutyric acid aminotransferase (GABA-AT) (Sus scrofa, UniProt P80147); details: cited from earlier work
Sequence of γ-aminobutyric acid aminotransferase (GABA-AT) (P80147 29-500): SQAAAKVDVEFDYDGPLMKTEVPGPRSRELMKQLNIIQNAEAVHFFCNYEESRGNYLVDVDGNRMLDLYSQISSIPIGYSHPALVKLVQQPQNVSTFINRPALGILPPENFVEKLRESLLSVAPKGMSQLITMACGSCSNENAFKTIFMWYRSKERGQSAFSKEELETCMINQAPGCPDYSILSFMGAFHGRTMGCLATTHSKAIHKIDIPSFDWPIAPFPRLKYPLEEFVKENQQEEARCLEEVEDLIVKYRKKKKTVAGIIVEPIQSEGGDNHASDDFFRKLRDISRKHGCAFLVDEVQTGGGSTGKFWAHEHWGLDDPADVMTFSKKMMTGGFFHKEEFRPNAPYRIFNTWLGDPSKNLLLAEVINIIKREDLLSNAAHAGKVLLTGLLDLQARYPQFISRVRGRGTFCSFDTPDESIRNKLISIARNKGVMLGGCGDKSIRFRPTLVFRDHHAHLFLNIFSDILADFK

T3 sequence (Q9NSD5 whole entry): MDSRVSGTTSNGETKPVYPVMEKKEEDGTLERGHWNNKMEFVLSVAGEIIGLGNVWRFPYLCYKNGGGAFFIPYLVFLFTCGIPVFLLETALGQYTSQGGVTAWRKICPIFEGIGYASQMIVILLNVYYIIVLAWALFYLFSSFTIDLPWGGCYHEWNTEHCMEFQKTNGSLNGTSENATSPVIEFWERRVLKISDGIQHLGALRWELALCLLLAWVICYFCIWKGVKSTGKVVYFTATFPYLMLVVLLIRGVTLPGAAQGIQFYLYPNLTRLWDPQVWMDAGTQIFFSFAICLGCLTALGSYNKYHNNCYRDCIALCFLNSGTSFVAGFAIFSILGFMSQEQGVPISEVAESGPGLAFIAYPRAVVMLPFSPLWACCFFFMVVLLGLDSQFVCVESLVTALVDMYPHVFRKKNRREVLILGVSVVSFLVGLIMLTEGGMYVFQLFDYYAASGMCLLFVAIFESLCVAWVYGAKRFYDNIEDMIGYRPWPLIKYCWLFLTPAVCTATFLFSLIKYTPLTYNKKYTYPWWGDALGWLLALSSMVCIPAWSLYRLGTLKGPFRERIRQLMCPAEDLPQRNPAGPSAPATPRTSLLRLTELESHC
T2 sequence (P31651 whole entry): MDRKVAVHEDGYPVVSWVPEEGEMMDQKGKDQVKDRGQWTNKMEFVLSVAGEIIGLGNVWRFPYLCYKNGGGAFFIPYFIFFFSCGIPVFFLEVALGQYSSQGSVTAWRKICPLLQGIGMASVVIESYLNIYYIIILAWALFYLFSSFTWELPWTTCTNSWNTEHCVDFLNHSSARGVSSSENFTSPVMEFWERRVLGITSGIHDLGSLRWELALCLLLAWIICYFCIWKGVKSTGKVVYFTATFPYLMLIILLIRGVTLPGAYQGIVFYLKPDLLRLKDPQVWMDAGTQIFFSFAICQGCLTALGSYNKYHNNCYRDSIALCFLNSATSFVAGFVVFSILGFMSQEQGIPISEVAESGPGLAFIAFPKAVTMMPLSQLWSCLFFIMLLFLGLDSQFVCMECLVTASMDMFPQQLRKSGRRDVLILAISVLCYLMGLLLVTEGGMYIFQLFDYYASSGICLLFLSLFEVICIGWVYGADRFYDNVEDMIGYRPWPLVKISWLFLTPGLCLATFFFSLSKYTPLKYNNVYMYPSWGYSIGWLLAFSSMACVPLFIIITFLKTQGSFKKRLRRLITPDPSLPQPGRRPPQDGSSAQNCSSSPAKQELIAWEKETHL
T4 sequence (P24046 21-479 limits assumed): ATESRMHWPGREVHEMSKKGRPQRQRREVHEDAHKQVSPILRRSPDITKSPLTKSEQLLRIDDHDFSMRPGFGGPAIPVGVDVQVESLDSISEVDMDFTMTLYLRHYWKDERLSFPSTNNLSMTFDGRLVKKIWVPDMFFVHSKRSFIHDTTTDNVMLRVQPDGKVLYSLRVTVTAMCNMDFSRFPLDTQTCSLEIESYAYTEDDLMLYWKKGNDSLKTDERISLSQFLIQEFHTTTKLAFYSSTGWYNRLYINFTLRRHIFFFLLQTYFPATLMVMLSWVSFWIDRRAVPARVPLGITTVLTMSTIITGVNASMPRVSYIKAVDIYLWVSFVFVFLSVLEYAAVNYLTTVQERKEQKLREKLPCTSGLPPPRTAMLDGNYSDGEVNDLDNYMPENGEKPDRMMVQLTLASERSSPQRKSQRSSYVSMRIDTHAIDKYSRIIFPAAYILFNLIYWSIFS
T1 sequence (P48066 whole entry): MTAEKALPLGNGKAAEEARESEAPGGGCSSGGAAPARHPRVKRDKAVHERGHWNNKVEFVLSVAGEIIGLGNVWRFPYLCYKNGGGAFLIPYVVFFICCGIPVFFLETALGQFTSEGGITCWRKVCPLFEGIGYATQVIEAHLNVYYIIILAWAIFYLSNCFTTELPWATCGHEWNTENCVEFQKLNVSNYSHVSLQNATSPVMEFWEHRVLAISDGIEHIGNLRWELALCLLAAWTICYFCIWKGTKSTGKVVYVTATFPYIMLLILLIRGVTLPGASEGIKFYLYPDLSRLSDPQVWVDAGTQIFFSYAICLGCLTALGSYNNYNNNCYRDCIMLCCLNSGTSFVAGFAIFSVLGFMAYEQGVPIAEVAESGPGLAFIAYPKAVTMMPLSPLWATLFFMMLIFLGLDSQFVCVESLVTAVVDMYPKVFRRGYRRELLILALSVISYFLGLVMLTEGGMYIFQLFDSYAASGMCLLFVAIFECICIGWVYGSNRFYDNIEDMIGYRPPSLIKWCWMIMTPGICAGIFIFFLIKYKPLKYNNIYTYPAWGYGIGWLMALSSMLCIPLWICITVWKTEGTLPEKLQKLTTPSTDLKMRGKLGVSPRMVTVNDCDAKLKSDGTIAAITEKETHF

Structure (SMILES): NCCCC(=O)O [GABA, γ-aminobutyric acid]
- IC50 [1]: 10 µM
- IC50 [2]: 51 µM
- IC50 [3]: 11 µM
- activation of current in oocytes [4]: activated an inward current

Structure (SMILES): C=CC(N)CCC(=O)O (centres unmarked) [Vigabatrin, γ-vinyl GABA, reference compound]
- subjects who achieved abstinence [5]: 28.0%
- brain GABA levels [6]: remain substantially elevated for several days
- dose effective previously against cocaine-induced dopamine increase [7]: 300 mg/kg
- dose required for similar findings (block of cocaine-induced CPP) [8]: 300 mg/kg
- ED50 ([9]; 192 h, primed @ 8 mA, 60 Hz, for 8 days): 80.4 mg/kg
- ED50 ([9]; 288 h, primed @ 3 mA, 50 Hz, for 12 days): 159 mg/kg
- Corn. Kind. TPE ([9]; primed @ 8 mA, 60 Hz, for 8 days): TPE 4 hours
- ED50 ([10]; 32 mA): 23.4 mg/kg
- ED50 ([10]; 44 mA): 154 mg/kg
- 6 Hz protection ([10]; 22 mA, all times @ 100 mg/kg): “good protection” @
- 6 Hz TPE ([10]; 32 mA): TPE 4 hours
- 6 Hz TPE ([10]; 44 mA): TPE 4 hours
- dopamine increase after cocaine challenge [11]: > 300% of baseline
- share of patients affected with visual field defects ([12]; after multiple years of therapy): One third or more of patients
- patients with visual field defects ([12]; following chronic administration): 25-50%
- occurrence of visual field defect ([12]; shorter duration exposure, stimulant addiction studies): does not show any occurrence of visual field defect
- time after initiation of therapy at which visual field defects were detectable ([12]; some patients): less than 2 months
- scMET protection [13]: 75% protection at 600
- scMET protection [14]: Minimal protection up
- scPIC protection [15]: Minimal protection up

Structure (SMILES): COC(=O)[C@H]1[C@@H](OC(=O)c2ccccc2)C[C@@H]2CC[C@H]1N2C [cocaine, reference compound]
- reduction of 11C-raclopride binding [16]: 22%
- time spent in the other chamber [17]: 4.8 ± 2.8 min
- time spent in cocaine-paired chamber ([17]; p<0.01): 12.2 ± 1.7 min

Structure (SMILES): N[C@@H]1C=C[C@H](C(=O)O)C1 [compound 1, (1R,4S)-4-amino-cyclopent-2-ene-1-carboxylic acid]
- specificity constant relative to GABA ([18]; substrate of GABA-AT): almost five times greater than that of GABA

Structure (SMILES): C=C1C[C@H](C(=O)O)C[C@@H]1N [compound 6, (1S,3S)-3-amino-4-methylenyl-1-cyclopentanoic acid]
- inactivation of GABA-AT ([18]; without 2-mercaptoethanol): inactivation of GABA-AT was observed
